This is an account of results in patent US6916604B2, “Uses of synthetic peptides corresponding to telopeptide sequences of cross-linked type I collagen metabolites” (Washington Research Foundation, priority 1987, dated 2005).

This experiment has as its system MAb-1H11. In words: ELISA of peptides competing against plated-out P1, or plated out as BSA conjugates, for MAb-1H11 binding. More on the design: species or system mouse. The conditions noted are these: for recognition by MAb-1H11: ELISA, free peptides competing against plated-out P1, or conjugated to BSA and plated out; for competitive binding with MAb-1H11 (FIG. 9): absorbance at 450 nm of detectable marker bound to plated-out P1 vs concentration of free peptide; for recognition of free cross-linking amino acids by MAb-1H11: made by acid hydrolysis from bone collagen or as present naturally in urine. On the technique in general: An ELISA detects its analyte on a solid surface through an enzyme-linked reagent.

No end group written: not given here.

On to YDEKSTGGC [SEQ ID NO:2], for which the “recognition by MAb-1H11” value is “not recognized” and the “competitive binding with MAb-1H11 (FIG. 9)” value is reported as “little if any significant competitive binding”.
With `NC(CCc1c[n+](CC(O)CCC(N)C(=O)O)cc(O)c1CC(N)C(=O)O)C(=O)O` (stereo not drawn) [HP, hydroxylysyl pyridinoline, reference compound], the “recognition of free cross-linking amino acids by MAb-1H11” value is “not recognized”.
With `NC(CCCC[n+]1cc(O)c(CC(N)C(=O)O)c(CCC(N)C(=O)O)c1)C(=O)O` (stereo not drawn) [LP, lysyl pyridinoline, reference compound], the “recognition of free cross-linking amino acids by MAb-1H11” value is “not recognized”.
For QYDGKGVGC [SEQ ID NO:1], the “recognition by MAb-1H11” value was “not recognized” and the “competitive binding with MAb-1H11 (FIG. 9)” value is “little if any significant competitive binding”.
